ChEMBL document CHEMBL3785024 (Br J Clin Pharmacol, 2004)

What was measured:
Format in all cases: ADME, organism-based
[1] = test system: Homo sapiens; test: Cmax in healthy human subjects assessed as simvastatin acid at 40 mg with 200 ml grape fruit juice drug administered as single dose on day 3 of grape fruit juice challenge measured upto 24 hrs by LC-MS analysis; set-up: dose 40 mg; settings: in vivo
[2] = test system: Homo sapiens; test: Elimination half life in healthy human subjects assessed as simvastatin acid at 40 mg with water administered as single dose measured upto 24 hrs by LC-MS analysis; settings: in vivo
[3] = AUC (0 to 24 hrs) in healthy human subjects at 40 mg with water administered as single dose measured upto 24 hrs by LC-MS analysis; set-up: time < 24 hr, dose 40 mg; settings: in vivo, oral
[4] = test system: Homo sapiens; test: Elimination half life in healthy human subjects assessed as simvastatin acid at 40 mg with 200 ml grape fruit juice drug administered as single dose on day 3 of grape fruit juice challenge measured upto 24 hrs by LC-MS analysis; settings: in vivo
[5] = Elimination half life in healthy human subjects at 40 mg with 200 ml grape fruit juice drug administered as single dose on day 3 of grape fruit juice challenge measured upto 24 hrs by LC-MS analysis; settings: in vivo, oral, read-out: beta t1/2 (converted)
[6] = test system: Homo sapiens; test: Cmax in healthy human subjects assessed as simvastatin acid at 40 mg with water administered as single dose measured upto 24 hrs by LC-MS analysis; set-up: dose 40 mg; settings: in vivo, po
[7] = Cmax in healthy human subjects at 40 mg with water administered as single dose measured upto 24 hrs by LC-MS analysis; set-up: dose 40 mg; settings: in vivo, oral
[8] = test system: Homo sapiens; test: AUC (0 to 24 hrs) in healthy human subjects assessed as simvastatin acid at 40 mg with 200 ml grape fruit juice drug administered as single dose on day 3 of grape fruit juice challenge measured upto 24 hrs by LC-MS analysis; set-up: time < 24 hr, dose 40 mg; settings: in vivo
[9] = test system: Homo sapiens; test: AUC (0 to 24 hrs) in healthy human subjects assessed as simvastatin acid at 40 mg with water administered as single dose measured upto 24 hrs by LC-MS analysis; set-up: dose 40 mg, time < 24 hr; settings: in vivo, po
[10] = Elimination half life in healthy human subjects at 40 mg with water administered as single dose measured upto 24 hrs by LC-MS analysis; settings: in vivo, oral, read-out: beta t1/2 (converted)
[11] = AUC (0 to 24 hrs) in healthy human subjects at 40 mg with 200 ml grape fruit juice drug administered as single dose on day 3 of grape fruit juice challenge measured upto 24 hrs by LC-MS analysis; set-up: dose 40 mg, time < 24 hr; settings: in vivo, oral
[12] = Cmax in healthy human subjects at 40 mg with 200 ml grape fruit juice drug administered as single dose on day 3 of grape fruit juice challenge measured upto 24 hrs by LC-MS analysis; set-up: dose 40 mg; settings: in vivo, oral

- Cmax [1]: 11.1 ng/mL
- beta t1/2 [2]: 2.9 h
- AUC(0-t) at 24 h [3]: 31.6 ng·h/mL
- beta t1/2 [4]: 2.4 h
- half-life [5]: 2 h
- Cmax [6]: 2.6 ng/mL
- Cmax [7]: 7.3 ng/mL
- AUC [8]: 62 ng·h/mL
- AUC [9]: 18.5 ng·h/mL
- half-life [10]: 2.7 h
- AUC(0-t) at 24 h [11]: 112 ng·h/mL
- Cmax [12]: 28.5 ng/mL
SMILES: CCC(C)(C)C(=O)O[C@H]1C[C@@H](C)C=C2C=C[C@H](C)[C@H](CC[C@@H]3C[C@@H](O)CC(=O)O3)[C@H]21 [SIMVASTATIN]
